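Each compound was tested at five concentrations against cells in 96-well plates for 48 hours. GI50 marks 50% less growth.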 The source made the active and inactive calls. Rule as the data show it: active = GI50 up to about 1.1 µM and inactive = higher. *1 amine or outer side, *2 acyl side, *3 side chain or, on linkers, in order; H or OH if unused. Where a SMILES comes first, the peptide text is derived from it. Bridges are numbered along the chain shown (N, C = ends). [ ]: non-standard residue; d: D form. The star is where a group is joined. ξ: configuration not given here. ξOrn(4,5-diOH) = O=C(C(CC(O)C(O)N[*:3])N[*:1])[*:2]; ξhTyr(βξ-OH,γξ-OH) = NC(C(=O)O)C(O)C(O)c1ccc(O)cc1; ξPro(3ξ-OH,4ξ-Me) = CC1CNC(C(=O)O)C1O; X55 = CCCCC/C=C/C/C=C\CCCCCCCC(=O)*; Hyp = O=C(O)[CH]1C[CH](O)CN1
Columns and labels:
Assay in all cases: NCI anticancer screen, dose series, 48 h
SK-MEL-5 = tested on: SK-MEL-5
NCI-H23 = tested on: NCI-H23
HCT-15 = tested on: HCT-15
SF-539 = tested on: SF-539
CCRF-CEM = tested on: CCRF-CEM
PC-3 = tested on: PC-3
HOP-62 = tested on: HOP-62
MDA-MB-435 = tested on: MDA-MB-435
K562 = tested on: K562
SN12C = tested on: SN12C
MDA-MB-231 = tested on: MDA-MB-231
UACC-62 = tested on: UACC-62
SK-MEL-2 = tested on: SK-MEL-2
HT-29 = tested on: HT-29
RXF 393 = tested on: RXF 393
LOX IMVI = tested on: LOX IMVI
SF-268 = tested on: SF-268
SW-620 = tested on: SW-620
HOP-92 = tested on: HOP-92
EKVX = tested on: EKVX

| SMILES | GI50 (SK-MEL-5) | GI50 (NCI-H23) | GI50 (HCT-15) [µM] | GI50 (SF-539) | GI50 (CCRF-CEM) | GI50 (PC-3) | GI50 (HOP-62) | GI50 (MDA-MB-435) | GI50 (K562) | GI50 (SN12C) | GI50 (MDA-MB-231) | GI50 (UACC-62) | GI50 (SK-MEL-2) | GI50 (HT-29) | GI50 (RXF 393) | GI50 (LOX IMVI) | GI50 (SF-268) | GI50 (SW-620) | GI50 (HOP-92) | GI50 (EKVX) |
| --- | --- | --- | --- | --- | --- | --- | --- | --- | --- | --- | --- | --- | --- | --- | --- | --- | --- | --- | --- | --- |
| OCC(Cn1cncn1)(c1ccc(F)cc1F)n1cncn1 (stereo unspecified) | > 100 µM (inactive) | > 100 µM (inactive) | > 100 | > 100 µM (inactive) | > 100 µM (inactive) | > 100 µM (inactive) | > 100 µM (inactive) | > 100 µM (inactive) | > 100 µM (inactive) | > 100 µM (inactive) | > 100 µM (inactive) | > 100 µM (inactive) | > 100 µM (inactive) | > 100 µM (inactive) | > 100 µM (inactive) | > 100 µM (inactive) | > 100 µM (inactive) | > 100 µM (inactive) | – | – |
| CCCCC/C=C/C/C=C\CCCCCCCC(=O)NC1CC(O)C(O)NC(=O)C2C(O)C(C)CN2C(=O)C(C(C)O)NC(=O)C(C(O)C(O)c2ccc(O)cc2)NC(=O)C2CC(O)CN2C(=O)C(C(C)O)NC1=O (stereo not drawn) (X55-[ξOrn(4,5-diOH)]T[Hyp][ξhTyr(βξ-OH,γξ-OH)]T[ξPro(3ξ-OH,4ξ-Me)]; lactam 1-C; configuration not given here) | > 100 µM (inactive) | > 100 µM (inactive) | > 100 | > 100 µM (inactive) | > 100 µM (inactive) | > 100 µM (inactive) | > 100 µM (inactive) | > 100 µM (inactive) | > 100 µM (inactive) | > 100 µM (inactive) | > 100 µM (inactive) | > 100 µM (inactive) | > 100 µM (inactive) | > 100 µM (inactive) | – | > 100 µM (inactive) | > 100 µM (inactive) | > 100 µM (inactive) | > 100 µM (inactive) | > 100 µM (inactive) |
| CC(=O)Nc1cccc(N2C(=O)/C(=C\c3cccc(Oc4ccccc4)c3)SC2c2ccccc2)c1 (stereo unspecified) | 33.5 µM (inactive) | 83.2 µM (inactive) | > 100 | 38.4 µM (inactive) | 14.9 µM (inactive) | – | > 100 µM (inactive) | 33.9 µM (inactive) | 25.6 µM (inactive) | > 100 µM (inactive) | > 100 µM (inactive) | 60.3 µM (inactive) | > 100 µM (inactive) | 80.7 µM (inactive) | 27.7 µM (inactive) | 37.8 µM (inactive) | 72.1 µM (inactive) | 54.6 µM (inactive) | 32.5 µM (inactive) | > 100 µM (inactive) |
| CN1CC2=C(N=C(S)NC2c2ccccc2)/C(=C/c2ccccc2)C1 (stereo unspecified) | 27.7 µM (inactive) | 56.2 µM (inactive) | 33 | 83.9 µM (inactive) | 31.1 µM (inactive) | 15 µM (inactive) | > 100 µM (inactive) | 46.8 µM (inactive) | 33 µM (inactive) | 51.8 µM (inactive) | > 10 µM (inactive) | 28.5 µM (inactive) | 45.9 µM (inactive) | 27 µM (inactive) | – | 29.7 µM (inactive) | > 100 µM (inactive) | 71.1 µM (inactive) | – | 75.2 µM (inactive) |
| CN(C)CC1CCC/C(=C\c2ccc(Cl)cc2)C1=O (stereo unspecified) | 4 µM (inactive) | 8.02 µM (inactive) | 2.05 | 10.6 µM (inactive) | 0.713 µM (active) | 2.67 µM (inactive) | 15.8 µM (inactive) | 3.83 µM (inactive) | 1 µM (active) | 3.33 µM (inactive) | 3.05 µM (inactive) | 2.08 µM (inactive) | 1.41 µM (inactive) | 9.27 µM (inactive) | – | 1.63 µM (inactive) | 5.2 µM (inactive) | 1.93 µM (inactive) | 3.15 µM (inactive) | 11.2 µM (inactive) |
| O=C(NC(=S)Nc1ccc([N+](=O)[O-])cc1)c1ccc2c(c1)Sc1ccccc1O2 | > 100 µM (inactive) | > 100 µM (inactive) | > 100 | 45.7 µM (inactive) | > 100 µM (inactive) | > 100 µM (inactive) | 78.5 µM (inactive) | > 100 µM (inactive) | > 100 µM (inactive) | > 100 µM (inactive) | > 100 µM (inactive) | 71.3 µM (inactive) | 99.1 µM (inactive) | > 100 µM (inactive) | – | > 100 µM (inactive) | 30.2 µM (inactive) | > 100 µM (inactive) | 37.3 µM (inactive) | – |
| O=C1/C(=C\c2cccc(Oc3ccccc3)c2)SC(c2ccccc2)N1Cc1ccccc1 (stereo unspecified) | 14.8 µM (inactive) | 22.7 µM (inactive) | 32.8 | 18.5 µM (inactive) | 17.1 µM (inactive) | – | 29.1 µM (inactive) | 23.3 µM (inactive) | 29.9 µM (inactive) | 33 µM (inactive) | 32.9 µM (inactive) | 29.3 µM (inactive) | 18.2 µM (inactive) | 20.2 µM (inactive) | 20.1 µM (inactive) | 15.5 µM (inactive) | 35 µM (inactive) | 38.3 µM (inactive) | 19 µM (inactive) | 28 µM (inactive) |
| CN(C)c1ccc(/C=C/c2ccnc3ccccc23)cc1N | 2.82 µM (inactive) | 5.68 µM (inactive) | 6.24 | 14.7 µM (inactive) | 3 µM (inactive) | 4.35 µM (inactive) | 13.8 µM (inactive) | 2.55 µM (inactive) | 3.98 µM (inactive) | 14.8 µM (inactive) | 4.04 µM (inactive) | 12.1 µM (inactive) | 8.65 µM (inactive) | 4.49 µM (inactive) | – | 7.41 µM (inactive) | 9.73 µM (inactive) | 12.4 µM (inactive) | 0.337 µM (active) | 4.72 µM (inactive) |
| Cc1cc(S(N)(=O)=O)c(SCc2nc(N)nc(N(C)C)n2)cc1Cl | > 10 µM (inactive) | > 10 µM (inactive) | > 10 | > 10 µM (inactive) | > 10 µM (inactive) | > 10 µM (inactive) | > 10 µM (inactive) | – | > 10 µM (inactive) | > 10 µM (inactive) | – | – | > 10 µM (inactive) | > 10 µM (inactive) | > 10 µM (inactive) | > 10 µM (inactive) | > 10 µM (inactive) | > 10 µM (inactive) | > 10 µM (inactive) | > 10 µM (inactive) |
| O=C1COc2cc(N3CCN(c4cccc(C(F)(F)F)c4)CC3)ccc2N1 | > 100 µM (inactive) | > 100 µM (inactive) | > 100 | > 100 µM (inactive) | > 100 µM (inactive) | > 100 µM (inactive) | > 100 µM (inactive) | > 100 µM (inactive) | > 100 µM (inactive) | > 100 µM (inactive) | > 100 µM (inactive) | > 100 µM (inactive) | > 100 µM (inactive) | > 100 µM (inactive) | – | > 100 µM (inactive) | > 100 µM (inactive) | > 100 µM (inactive) | > 100 µM (inactive) | > 100 µM (inactive) |
| Cc1c(Cl)nc(Nc2nc3ccccc3[nH]2)nc1Cl | > 100 µM (inactive) | 92.9 µM (inactive) | > 100 | > 100 µM (inactive) | – | > 100 µM (inactive) | – | > 100 µM (inactive) | > 100 µM (inactive) | 41 µM (inactive) | – | > 100 µM (inactive) | > 100 µM (inactive) | 25 µM (inactive) | > 100 µM (inactive) | – | 47.6 µM (inactive) | 31.2 µM (inactive) | 2.06 µM (inactive) | 21.9 µM (inactive) |

Reference: ChEMBL document CHEMBL1201862, “PubChem BioAssay data set” (2004)
